Among the test systems are HCT-116 colon; LOX IMVI melanoma; OVCAR-8 ovarian; SNB-75 CNS; EKVX NSCLC; NCI-H226 lung; OVCAR-5 ovarian; TK-10 renal.
Holding throughout (experiment): inhibition of tumour cell growth, NCI panel, 48 h

SMILES strings stand for the structures.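 Each compound was tested at five concentrations against cells in 96-well plates for 48 hours. Abbreviation: GI50, concentration required for 50% inhibition of growth. TGI: concentration producing complete growth inhibition.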

`COC(=O)c1c2c(c(C)[n+]([O-])c1C)C(=O)C(NCc1ccc(Br)cc1)=CC2=O`: the GI50 in the test with HCT-116 colon was 1.23 µM; in the test on LOX IMVI melanoma, 1.67 µM; in the test with OVCAR-8 ovarian, 1.83 µM; in the test with SNB-75 CNS, 2.2 µM. Also, the TGI with HCT-116 colon worked out at 3.77 µM; with LOX IMVI melanoma, 6.7 µM; with OVCAR-8 ovarian, 7.19 µM; in the test on SNB-75 CNS it was 6.79 µM.
On to `Cc1cc(C(=O)CSC(=S)SC(C)(C)C)ccc1Cl`, for which the TGI was 56.8 µM with EKVX NSCLC; 42.3 µM in the test with HCT-116 colon; 45 µM in the test on LOX IMVI melanoma; 42.7 µM in the test on NCI-H226 lung; 43.9 µM in the test with OVCAR-5 ovarian; above 100 µM with OVCAR-8 ovarian. For the same compound, the TGI with SNB-75 CNS came to 54.3 µM; in the test on TK-10 renal, 60 µM.
Take `CO[C@@H]1CC[C@]2(C)OC[C@H](C)[C@@H]3C[C@@H](C)[C@@H](OC(C)=O)[C@@H]4[C@H]3[C@@H]2O[C@H]4C[C@@]1(C)O`: the GI50 in the test with EKVX NSCLC, with LOX IMVI melanoma, with NCI-H226 lung, in the test on OVCAR-5 ovarian, in the test with OVCAR-8 ovarian and in the test with SNB-75 CNS was above 100 µM in each case. Moreover, the GI50 in the test with TK-10 renal was above 100 µM. Further, the TGI in the test with EKVX NSCLC, in the test on LOX IMVI melanoma, in the test on NCI-H226 lung, in the test with OVCAR-5 ovarian, with OVCAR-8 ovarian and in the test with SNB-75 CNS was above 100 µM each time. In the test on TK-10 renal, this compound returned a TGI above 100 µM.
As to `Nc1c(C(=O)Nc2ccccn2)sc2nc3c(cc12)C(=O)CCC3`, the GI50 with HCT-116 colon was 0.52 µM; in the test on LOX IMVI melanoma, 4.18 µM; in the test on NCI-H226 lung it was 3.62 µM; in the test with OVCAR-5 ovarian, 9.53 µM; with OVCAR-8 ovarian it was 6.52 µM; in the test on SNB-75 CNS it was 0.646 µM. For the same compound, the GI50 with TK-10 renal was 22.3 µM. For the same compound, the TGI with HCT-116 colon was above 100 µM; in the test with LOX IMVI melanoma it was above 100 µM; in the test with NCI-H226 lung it was above 100 µM; with OVCAR-5 ovarian, above 100 µM; in the test on OVCAR-8 ovarian, above 100 µM; in the test with SNB-75 CNS, 22.2 µM. Moreover, in the test on TK-10 renal, the TGI is above 100 µM.
Regarding `COC(=O)c1c(C)cc(OC)c(C/C=C(\C)CCCc2coc(C=C(C)C)c2)c1OC`, the TGI with EKVX NSCLC, in the test with HCT-116 colon, with LOX IMVI melanoma, with OVCAR-5 ovarian, in the test with OVCAR-8 ovarian and in the test with SNB-75 CNS was above 100 µM each time. In the test on TK-10 renal, this compound returned a TGI above 100 µM.
As to `COc1ccc(Cl)cc1NC(=O)c1ccc(NC2=C(Cl)C(=O)N(Cc3ccccc3)C2=O)cc1`, the GI50 in the test with EKVX NSCLC was above 100 µM; in the test with HCT-116 colon, 37.7 µM; in the test on LOX IMVI melanoma, 8.5 µM; in the test on NCI-H226 lung, above 100 µM; with OVCAR-5 ovarian, above 100 µM; with OVCAR-8 ovarian, 19.4 µM. In the test on TK-10 renal, the GI50 is above 100 µM. Further, the TGI in the test on EKVX NSCLC, with HCT-116 colon, in the test on LOX IMVI melanoma, in the test with NCI-H226 lung, in the test with OVCAR-5 ovarian and in the test on OVCAR-8 ovarian was above 100 µM each time. In the test with TK-10 renal, the TGI is above 100 µM.
As to `CN(Cc1cnc2nc(N)nc(N)c2n1)c1ccc(C(=O)N[C@@H](CCS(=O)(=O)O)C(=O)O)cc1`, the TGI with EKVX NSCLC was above 100 µM; with LOX IMVI melanoma, above 100 µM; in the test with NCI-H226 lung, above 100 µM; in the test with OVCAR-8 ovarian it was above 55.3 µM; in the test with SNB-75 CNS, above 100 µM; in the test on TK-10 renal, above 100 µM. Also, the GI50 in the test with SNB-75 CNS is 18.2 µM.
On to `CSC[C@H](NC(=O)COc1cccc2cnccc12)C(=O)NC(Cc1ccccc1)C(O)C(=O)N1CSC[C@H]1C(=O)NC(C)(C)C` (stereo not given in full), for which the TGI in the test with HCT-116 colon, with LOX IMVI melanoma, with NCI-H226 lung, in the test on OVCAR-5 ovarian, with OVCAR-8 ovarian and in the test with SNB-75 CNS was above 100 µM throughout. The same compound showed a TGI with TK-10 renal above 100 µM.
As to `C=C(C)[C@@H]1CC[C@]2(CN)CC[C@]3(C)[C@H](CC[C@@H]4[C@@]5(C)CCCNC(C)(C)[C@@H]5CC[C@]43C)[C@@H]12`, the GI50 with EKVX NSCLC is 1.77 µM; with HCT-116 colon it was 1.42 µM; with NCI-H226 lung, 1.88 µM; in the test with OVCAR-5 ovarian, 1.59 µM; in the test on SNB-75 CNS it was 1.63 µM; in the test on TK-10 renal, 1.86 µM. The TGI stood at 3.39 µM in the test on EKVX NSCLC; 2.96 µM with HCT-116 colon; 3.8 µM with NCI-H226 lung; 3.11 µM in the test on OVCAR-5 ovarian; 3.11 µM in the test on SNB-75 CNS; 3.52 µM with TK-10 renal.
As for `Cc1cccc(NC2=C(Cl)C(=O)c3nc(C)ccc3C2=O)c1`, the GI50 with EKVX NSCLC was 1.47 µM; in the test on HCT-116 colon, 0.44 µM; in the test with LOX IMVI melanoma it was 0.351 µM; in the test with NCI-H226 lung it was 1.1 µM; with OVCAR-5 ovarian it was 1.82 µM; with SNB-75 CNS, 2.73 µM. For the same compound, the GI50 in the test with TK-10 renal was 2.58 µM. The TGI was 2.8 µM in the test with EKVX NSCLC; 1.86 µM in the test with HCT-116 colon; 1.46 µM in the test with LOX IMVI melanoma; 2.78 µM in the test on NCI-H226 lung; 3.61 µM in the test on OVCAR-5 ovarian; 7.33 µM in the test on SNB-75 CNS. In addition, the TGI in the test with TK-10 renal stood at 4.17 µM.
Regarding `CCN(Cc1c(F)cccc1OC)c1ccc(CO)c(Cl)c1`, the GI50 was 0.0546 µM with HCT-116 colon; 16.9 µM in the test on LOX IMVI melanoma; 0.0328 µM with NCI-H226 lung; 0.0371 µM in the test on OVCAR-5 ovarian; 12 µM in the test with OVCAR-8 ovarian; 14.5 µM in the test with SNB-75 CNS. Moreover, the TGI in the test with HCT-116 colon is above 37.2 µM; in the test with LOX IMVI melanoma, 33.1 µM; in the test on NCI-H226 lung, 0.169 µM; in the test on OVCAR-5 ovarian, 0.242 µM; in the test on OVCAR-8 ovarian it was 50.2 µM; in the test with SNB-75 CNS, 46.2 µM. In the test with TK-10 renal, this compound came in with a TGI of 0.0536 µM.
With `CCSc1nc(N=Cc2ccccc2O)c2cn[nH]c2n1`, the GI50 in the test with EKVX NSCLC is 47.2 µM; with HCT-116 colon it was 25.7 µM; with LOX IMVI melanoma, 30.1 µM; in the test with NCI-H226 lung, 17.9 µM; in the test on OVCAR-5 ovarian it was 21.1 µM; with OVCAR-8 ovarian, 48.8 µM. In the test with TK-10 renal, the GI50 was 9.67 µM. Further, the TGI with EKVX NSCLC was above 100 µM; in the test with HCT-116 colon, above 100 µM; with LOX IMVI melanoma it was above 100 µM; in the test with NCI-H226 lung it was 73.9 µM; in the test on OVCAR-5 ovarian it was 66.9 µM; in the test with OVCAR-8 ovarian, above 100 µM. The TGI with TK-10 renal is 36.6 µM.
In the case of `COc1cc(/C=C2\CCCCC3=C2N=C2SC(C)=CN2C3c2cc(OC)c(OC)c(OC)c2)cc(OC)c1OC` (stereo not given), the GI50 in the test on HCT-116 colon is 7.32 µM; in the test on LOX IMVI melanoma it was above 100 µM; with NCI-H226 lung it was 11 µM; with OVCAR-5 ovarian, above 100 µM; with OVCAR-8 ovarian it was 11.9 µM; in the test with SNB-75 CNS, 1.9 µM. Further, the GI50 in the test on TK-10 renal is 22.4 µM. Besides, the TGI in the test on HCT-116 colon was above 100 µM; in the test with LOX IMVI melanoma, above 100 µM; with NCI-H226 lung, above 100 µM; with OVCAR-5 ovarian, above 100 µM; in the test with OVCAR-8 ovarian it was above 100 µM; with SNB-75 CNS, 9.09 µM. Also, the TGI with TK-10 renal was above 100 µM.
On to `CCN(CCNS(C)(=O)=O)c1ccc(N)c(C)c1`, for which the GI50 with HCT-116 colon was 2.5 µM; with LOX IMVI melanoma it was 3.48 µM; in the test on NCI-H226 lung, 15.2 µM; in the test with OVCAR-5 ovarian, 13.6 µM; with OVCAR-8 ovarian, 3.94 µM; in the test on SNB-75 CNS, 18.8 µM. In addition, in the test on TK-10 renal, the GI50 is 3.44 µM. Also, the TGI with HCT-116 colon came to 6.2 µM; in the test with LOX IMVI melanoma, 12.4 µM; with NCI-H226 lung, 32.2 µM; in the test on OVCAR-5 ovarian it was 28.2 µM; in the test with OVCAR-8 ovarian, 15.2 µM; in the test on SNB-75 CNS it was 37.8 µM. For the same compound, the TGI in the test on TK-10 renal was 7.73 µM.
With `O=C(CC(=O)Nc1ccccc1)NNC(Sc1ccccc1)c1cc(N=Nc2ccc(Br)cc2)ccc1O` (stereo not given), the TGI in the test on EKVX NSCLC was above 10 µM; in the test with HCT-116 colon it was 2.81 µM; in the test on LOX IMVI melanoma, above 10 µM; with NCI-H226 lung, 5.04 µM; with OVCAR-5 ovarian it was above 10 µM; in the test on SNB-75 CNS, above 10 µM. The compound further registered a TGI in the test with TK-10 renal above 10 µM.
As to `COc1ccc(-c2cc(=O)oc3c4c(ccc23)OCN(Cc2ccc(F)cc2)C4)cc1`, the GI50 in the test with HCT-116 colon was 13.6 µM; in the test with LOX IMVI melanoma it was 16.7 µM; with NCI-H226 lung, 18.2 µM; in the test with OVCAR-5 ovarian it was 18.4 µM; in the test on OVCAR-8 ovarian, 17.2 µM; with SNB-75 CNS it was 6.62 µM. Moreover, the GI50 in the test on TK-10 renal is 16.1 µM. The TGI with HCT-116 colon stood at 27.7 µM; in the test with LOX IMVI melanoma, 32.3 µM; in the test on NCI-H226 lung it was 54.5 µM; in the test with OVCAR-5 ovarian, 45.1 µM; in the test with OVCAR-8 ovarian it was 37.7 µM; with SNB-75 CNS, 25.3 µM. The TGI in the test on TK-10 renal stood at 49.3 µM.
In the case of `COc1ccc(-c2c(C#N)c(N3CCOCC3)nc3[nH]c(=S)[nH]c(=S)c23)cc1OC`, the GI50 in the test on EKVX NSCLC is above 100 µM; in the test with HCT-116 colon it was 27.8 µM; in the test with LOX IMVI melanoma it was 16.7 µM; in the test on NCI-H226 lung, 18.8 µM; in the test on OVCAR-5 ovarian, above 100 µM; with OVCAR-8 ovarian it was 34.5 µM. Besides, the GI50 in the test on TK-10 renal was 34.5 µM. Moreover, the TGI is above 100 µM in the test on EKVX NSCLC; above 100 µM in the test with HCT-116 colon; 60.9 µM with LOX IMVI melanoma; 89.6 µM with NCI-H226 lung; above 100 µM in the test on OVCAR-5 ovarian; above 100 µM in the test on OVCAR-8 ovarian. The compound also gave a TGI with TK-10 renal above 100 µM.
